In brackets after ≈: the same amount, converted by molar mass.
What was measured:
Beta-lactamase ADC-33 = Beta-lactamase ADC-33 (Acinetobacter baumannii, UniProt B2ZTR6); assay: Activity of Acinetobacter baumannii ADC-33 beta-lactamase
Acinetobacter baumannii [1] = assay: Ratio of Kcat to Ki for Acinetobacter baumannii ADC-33 beta-lactamase to Kcat to Ki for Acinetobacter baumannii ADC-11 beta-lactamase
ADC-11 = ADC-11 (Acinetobacter baumannii, UniProt D6NSM8); assay: Activity of Acinetobacter baumannii ADC-11 beta-lactamase
Acinetobacter baumannii [2] = assay: Antimicrobial activity against Acinetobacter baumannii expressing ESAC beta-lactamase by Etest method; format: functional
Acinetobacter baumannii [3] = assay: Ratio of Kcat to Km for Acinetobacter baumannii ADC-33 beta-lactamase to Kcat to Km for Acinetobacter baumannii ADC-11 beta-lactamase
Escherichia coli [4] = assay: Antimicrobial activity against Escherichia coli TOP10 harboring pADC-33 plasmid with entire blaAmpC gene by Etest method; format: functional
Acinetobacter baumannii [5] = assay: Antimicrobial activity against Acinetobacter baumannii AYE expressing VEB-1 gene by Etest method; format: functional
Escherichia coli [6] = assay: Antimicrobial activity against Escherichia coli TOP10 harboring pADC-11 plasmid with entire blaAmpC gene by Etest method; format: functional
Escherichia coli [7] = assay: Antimicrobial activity against Escherichia coli TOP10 harboring pADC-11 plasmid carrying entire blaAmpC gene with alanine residue insertion at 215 position and R210P substitution by Etest method; format: functional
Escherichia coli [8] = assay: Antimicrobial activity against Escherichia coli TOP10 harboring pADC-33 plasmid carrying entire blaAmpC gene with alanine residue deletion at 215 position and R210P substitution by Etest method; format: functional
Escherichia coli [9] = assay: Antimicrobial activity against Escherichia coli TOP10 harboring pADC-11 plasmid carrying entire blaAmpC gene with alanine residue insertion at 215 position by Etest method; format: functional
Escherichia coli [10] = assay: Antimicrobial activity against Escherichia coli TOP10 harboring pADC-33 plasmid by Etest method; format: functional
Escherichia coli [11] = assay: Antimicrobial activity against Escherichia coli TOP10 harboring pTOPO plasmid by Etest method; format: functional
Acinetobacter baumannii [12] = assay: Antimicrobial activity against Acinetobacter baumannii KI by Etest method; format: functional
Acinetobacter baumannii [13] = assay: Antimicrobial activity against Acinetobacter baumannii CIP70.10 by Etest method; format: functional
Escherichia coli [14] = assay: Antimicrobial activity against Escherichia coli TOP10 harboring pADC-11 plasmid by Etest method; format: functional
Escherichia coli [15] = assay: Antimicrobial activity against Escherichia coli TOP10 harboring pADC-33 plasmid with entire blaAmpC gene with alanine residue deletion at 215 position by Etest method; format: functional
Acinetobacter baumannii [16] = assay: Antimicrobial activity against Acinetobacter baumannii beta-lactamase by Etest method; format: functional
Escherichia coli [17] = assay: Antimicrobial activity against Escherichia coli TOP10 harboring pADC-50 plasmid by Etest method; format: functional

| SMILES | Ki (Beta-lactamase ADC-33) [nM] | kcat/Km (Acinetobacter baumannii [1]) [M⁻¹ s⁻¹] | Ki (ADC-11) [nM] | MIC (Acinetobacter baumannii [2]) [µg/mL] | kcat/Km (Acinetobacter baumannii [3]) [M⁻¹ s⁻¹] | MIC (Escherichia coli [4]) [µg/mL] | MIC (Acinetobacter baumannii [5]) [µg/mL] | MIC (Escherichia coli [6]) [µg/mL] | MIC (Escherichia coli [7]) [µg/mL] | MIC (Escherichia coli [8]) [µg/mL] | MIC (Escherichia coli [9]) [µg/mL] | MIC (Escherichia coli [10]) [µg/mL] | MIC (Escherichia coli [11]) [µg/mL] | MIC (Acinetobacter baumannii [12]) [µg/mL] | MIC (Acinetobacter baumannii [13]) [µg/mL] | MIC (Escherichia coli [14]) [µg/mL] | MIC (Escherichia coli [15]) [µg/mL] | MIC (Acinetobacter baumannii [16]) [µg/mL] | MIC (Escherichia coli [17]) [µg/mL] |
| --- | --- | --- | --- | --- | --- | --- | --- | --- | --- | --- | --- | --- | --- | --- | --- | --- | --- | --- | --- |
| CO[C@@]1(NC(=O)Cc2cccs2)C(=O)N2C(C(=O)O)=C(COC(N)=O)CS[C@@H]21 [CEFOXITIN] | 100 | 1e+06 | 500 |  |  |  |  |  |  |  |  |  |  |  |  |  |  |  |  |
| CO/N=C(\C(=O)N[C@@H]1C(=O)N2C(C(=O)[O-])=C(C[n+]3cccc4c3CCC4)CS[C@H]12)c1csc(N)n1 [CEFPIROME] |  |  |  | 128 (≈ 249 µM) | 1.25e+07 | 4 (≈ 7.77 µM) | > 256 | 0.125 (≈ 0.243 µM) | 8 (≈ 15.5 µM) | 0.125 (≈ 0.243 µM) | 2 (≈ 3.89 µM) | 0.5 (≈ 0.972 µM) | 0.023 (≈ 0.0447 µM) | > 256 | 2 (≈ 3.89 µM) | 0.032 (≈ 0.0622 µM) | 0.5 (≈ 0.972 µM) | 4 (≈ 7.77 µM) | 0.047 (≈ 0.0913 µM) |
| CC(C)(O/N=C(\C(=O)N[C@@H]1C(=O)N2C(C(=O)[O-])=C(C[n+]3ccccc3)CS[C@H]12)c1csc(N)n1)C(=O)O [CEFTAZIDIME] |  |  |  |  | 1.5e+08 | > 256 | > 256 | 8 (≈ 14.6 µM) | > 256 | 8 (≈ 14.6 µM) | > 256 | > 256 | 0.125 (≈ 0.229 µM) | > 256 | 2 (≈ 3.66 µM) | 0.5 (≈ 0.915 µM) | 16 (≈ 29.3 µM) |  | 0.5 (≈ 0.915 µM) |
| CO/N=C(\C(=O)N[C@@H]1C(=O)N2C(C(=O)O)=C(COC(N)=O)CS[C@H]12)c1ccco1 [CEFUROXIME] |  |  |  |  |  | > 256 | > 256 | > 256 | > 256 | > 256 | > 256 | > 256 | 2 (≈ 4.71 µM) | > 256 | 32 (≈ 75.4 µM) | 128 (≈ 302 µM) | > 256 |  | 64 (≈ 151 µM) |

— ChEMBL document CHEMBL1649315, “Extended-spectrum cephalosporinase in Acinetobacter baumannii” (Antimicrob Agents Chemother, 2010)
